The numbers were not newly measured in patent publication US20040043073A1, “Pharmaceutical compositions for drugs having pH-dependent solubility” (priority 2002, published 2004), which cites them from elsewhere.

Read-outs that look alike come from different tables or passages of the source.

In the case of `CC[C@H]1OC(=O)[C@H](C)[C@@H](O[C@H]2C[C@@](C)(OC)[C@@H](O)[C@H](C)O2)[C@H](C)[C@@H](O[C@@H]2O[C@H](C)C[C@H](N(C)C)[C@H]2O)[C@](C)(OC)C[C@@H](C)C(=O)[C@H](C)[C@@H](O)[C@]1(C)O` [clarithromycin, 6-O-methylerythromycin A], the solubility entry reads like this: (in the stomach (pH 1.2)) “very soluble”; (lower small intestine (pH 6 to 8)) “solubility decreases”; (upper region of the small intestine (pH 5.0)) “fairly soluble”.
